Data taken from PubChem BioAssay AID1963447 (Molecular Pharmacology Branch, DTP, NCI, 2024).

Tested on: 885512-296-R-J2-PDC complex spheroid growth, % test/control
Assay: Anticancer human tumor 885512-296-R-J2-PDC patient-derived breast carcinoma cell line growth inhibition [Asc]
Details: for IC50: curve of first compound; for viability, T/C: stronger effect = lower value
In short: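 Complex solid-tumor spheroids incorporating human endothelial and mesenchymal stem cells received single agents or combinations over half-log dilution ranges anchored to clinical Cmax.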

[1] = second compound 0.03 µM, first compound 0.0316 µM
[2] = second compound 0.03 µM, first compound 0.1 µM
[3] = second compound 0.03 µM, first compound 0.316 µM
[4] = second compound 0.03 µM, first compound 1 µM
[5] = second compound 0.03 µM, first compound 3.16 µM
[6] = second compound 0.03 µM, first compound 10 µM
[7] = second compound 0.0949 µM, first compound 0.0316 µM
[8] = second compound 0.0949 µM, first compound 0.1 µM
[9] = second compound 0.0949 µM, first compound 0.316 µM
[10] = second compound 0.0949 µM, first compound 1 µM
[11] = second compound 0.0949 µM, first compound 3.16 µM
[12] = second compound 0.0949 µM, first compound 10 µM
[13] = second compound 0.3 µM, first compound 0.0316 µM
[14] = second compound 0.3 µM, first compound 0.1 µM
[15] = second compound 0.3 µM, first compound 0.316 µM
[16] = second compound 0.3 µM, first compound 1 µM
[17] = second compound 0.3 µM, first compound 3.16 µM
[18] = second compound 0.3 µM, first compound 10 µM
[19] = second compound 0.949 µM, first compound 0.0316 µM
[20] = second compound 0.949 µM, first compound 0.1 µM
[21] = second compound 0.949 µM, first compound 0.316 µM
[22] = second compound 0.949 µM, first compound 1 µM
[23] = second compound 0.949 µM, first compound 3.16 µM
[24] = second compound 0.949 µM, first compound 10 µM
[25] = second compound 3 µM, first compound 0.0316 µM
[26] = second compound 3 µM, first compound 0.1 µM
[27] = second compound 3 µM, first compound 0.316 µM
[28] = second compound 3 µM, first compound 1 µM
[29] = second compound 3 µM, first compound 3.16 µM
[30] = second compound 3 µM, first compound 10 µM
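Also: spheroids exposed to compounds for seven days.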
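For viability, T/C in this document: 100% = DMSO vehicle control wells.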

C=CC(=O)N1CCN(c2nc(=O)n(-c3c(C)ccnc3C(C)C)c3nc(-c4c(O)cccc4F)c(F)cc23)C(C)C1 (stereo not given) + CCN1C(C(=O)NC23CCC(C(=O)O)(CC2)CC3)C(c2cccc(Cl)c2F)C2(C(=O)Nc3cc(Cl)ccc32)C12CCCCC2
IC50 (second compound 0.03 µM): > 10 µM | IC50 (second compound 0.0949 µM): > 10 µM | IC50 (second compound 0.3 µM): > 10 µM | IC50 (second compound 0.949 µM): > 10 µM | IC50 (second compound 3 µM): < 0.0316 µM | viability, T/C [1]: 93.7% | viability, T/C [2]: 96.8% | viability, T/C [3]: 111% | viability, T/C [4]: 112% | viability, T/C [5]: 101% | viability, T/C [6]: 61.3% | viability, T/C [7]: 73.5% | viability, T/C [8]: 108% | viability, T/C [9]: 114% | viability, T/C [10]: 108% | viability, T/C [11]: 96.3% | viability, T/C [12]: 64% | viability, T/C [13]: 89.8% | viability, T/C [14]: 88.3% | viability, T/C [15]: 117% | viability, T/C [16]: 95.3% | viability, T/C [17]: 101% | viability, T/C [18]: 72% | viability, T/C [19]: 68.7% | viability, T/C [20]: 71.2% | viability, T/C [21]: 70% | viability, T/C [22]: 86.9% | viability, T/C [23]: 91.8% | viability, T/C [24]: 61% | viability, T/C [25]: 38.8% | viability, T/C [26]: 52.6% | viability, T/C [27]: 46.4% | viability, T/C [28]: 61.1% | viability, T/C [29]: 58.5% | viability, T/C [30]: 52.2%

O=C(c1cc(Cc2n[nH]c(=O)c3ccccc23)ccc1F)N1CCN(C(=O)C2CC2)CC1 + CCN1C(C(=O)NC23CCC(C(=O)O)(CC2)CC3)C(c2cccc(Cl)c2F)C2(C(=O)Nc3cc(Cl)ccc32)C12CCCCC2
IC50 (second compound 0.03 µM): 4.71 µM | IC50 (second compound 0.0949 µM): 5.65 µM | IC50 (second compound 0.3 µM): 5.14 µM | IC50 (second compound 0.949 µM): 5.09 µM | IC50 (second compound 3 µM): < 0.0316 µM | viability, T/C [1]: 80.5% | viability, T/C [2]: 118% | viability, T/C [3]: 116% | viability, T/C [4]: 92.7% | viability, T/C [5]: 67.7% | viability, T/C [6]: 17.6% | viability, T/C [7]: 98.8% | viability, T/C [8]: 116% | viability, T/C [9]: 107% | viability, T/C [10]: 90.2% | viability, T/C [11]: 79.5% | viability, T/C [12]: 22.9% | viability, T/C [13]: 93.3% | viability, T/C [14]: 97.8% | viability, T/C [15]: 89.9% | viability, T/C [16]: 98.1% | viability, T/C [17]: 69.5% | viability, T/C [18]: 23.6% | viability, T/C [19]: 72% | viability, T/C [20]: 81.1% | viability, T/C [21]: 76% | viability, T/C [22]: 77.1% | viability, T/C [23]: 66.8% | viability, T/C [24]: 25.3% | viability, T/C [25]: 45.1% | viability, T/C [26]: 54.7% | viability, T/C [27]: 42.6% | viability, T/C [28]: 47.8% | viability, T/C [29]: 47.2% | viability, T/C [30]: 23.5%

NC1CCC(NC2CC2c2ccccc2)CC1 (stereo not given) + Cc1c(S(C)(=O)=O)c(-c2cc(F)cc(N3CCN(c4ccc(NS(=O)(=O)c5ccc(NC(CCN6CCC(C(=O)OCCCP(=O)(O)O)CC6)CSc6ccccc6)c(S(=O)(=O)C(F)(F)F)c5)cc4)CC3)c2)c(-c2ccc(Cl)cc2)n1C(C)C
IC50 (second compound 0.1 µM): > 0.1 µM | IC50 (second compound 0.316 µM): > 0.1 µM | IC50 (second compound 1 µM): > 0.1 µM | IC50 (second compound 3.16 µM): > 0.1 µM | IC50 (second compound 10 µM): > 0.1 µM | viability, T/C (second compound 0.1 µM, first compound 0.000316 µM): 124% | viability, T/C (second compound 0.1 µM, first compound 0.001 µM): 127% | viability, T/C (second compound 0.1 µM, first compound 0.00316 µM): 122% | viability, T/C (second compound 0.1 µM, first compound 0.01 µM): 123% | viability, T/C (second compound 0.1 µM, first compound 0.0316 µM): 123% | viability, T/C (second compound 0.1 µM, first compound 0.1 µM): 113% | viability, T/C (second compound 0.316 µM, first compound 0.000316 µM): 121% | viability, T/C (second compound 0.316 µM, first compound 0.001 µM): 126% | viability, T/C (second compound 0.316 µM, first compound 0.00316 µM): 118% | viability, T/C (second compound 0.316 µM, first compound 0.01 µM): 108% | viability, T/C (second compound 0.316 µM, first compound 0.0316 µM): 127% | viability, T/C (second compound 0.316 µM, first compound 0.1 µM): 122% | viability, T/C (second compound 1 µM, first compound 0.000316 µM): 109% | viability, T/C (second compound 1 µM, first compound 0.001 µM): 115% | viability, T/C (second compound 1 µM, first compound 0.00316 µM): 122% | viability, T/C (second compound 1 µM, first compound 0.01 µM): 116% | viability, T/C (second compound 1 µM, first compound 0.0316 µM): 123% | viability, T/C (second compound 1 µM, first compound 0.1 µM): 121% | viability, T/C (second compound 3.16 µM, first compound 0.000316 µM): 112% | viability, T/C (second compound 3.16 µM, first compound 0.001 µM): 116% | viability, T/C (second compound 3.16 µM, first compound 0.00316 µM): 116% | viability, T/C (second compound 3.16 µM, first compound 0.01 µM): 111% | viability, T/C (second compound 3.16 µM, first compound 0.0316 µM): 113% | viability, T/C (second compound 3.16 µM, first compound 0.1 µM): 120% | viability, T/C (second compound 10 µM, first compound 0.000316 µM): 122% | viability, T/C (second compound 10 µM, first compound 0.001 µM): 104% | viability, T/C (second compound 10 µM, first compound 0.00316 µM): 99.5% | viability, T/C (second compound 10 µM, first compound 0.01 µM): 121% | viability, T/C (second compound 10 µM, first compound 0.0316 µM): 111% | viability, T/C (second compound 10 µM, first compound 0.1 µM): 118%
